Results published in US8802597B2, “Herbicidal pyrimidines” (E I du Pont de Nemours and Company, priority 2003, dated 2014).
Read-outs that look alike come from different tables or passages of the source.

What was measured:
Experiment in all cases: Test C pre/postemergence
Assay type in all cases: in vivo
kochia (Kochia scoparia) = conditions: Bassia scoparia, pre-emergence, Preemergence, 500 g ai/ha; scale 0 to 100; read-out: Plant response rating, Kochia
Method in brief: (§1)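 We sprayed seeded pots preemergence and 2–18 cm seedlings postemergence with test chemicals in a non-phytotoxic solvent mixture including surfactant. Greenhouse plants were visually compared with untreated controls at 12 to 14 days and scored 0 (no effect) to 100 (complete control).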

[1] = system: Surinam grass (Brachiaria decumbens); conditions: Urochloa decumbens; for pest or weed control at 125 g/ha: 125 g ai/ha; for pest or weed control at 500 g/ha: 500 g ai/ha; for pest or weed control at 62 g/ha: 62 g ai/ha; for pest or weed control at 250 g/ha: 250 g ai/ha
Method in brief: as §1

[2] = system: lambsquarters (Chenopodium album); conditions: Chenopodium album; for pest or weed control at 62 g/ha: 62 g ai/ha; for pest or weed control at 125 g/ha: 125 g ai/ha; for pest or weed control at 250 g/ha: 250 g ai/ha; for pest or weed control at 500 g/ha: 500 g ai/ha
Method in brief: as §1

[3] = system: cocklebur (Xanthium strumarium); conditions: Xanthium strumarium; for pest or weed control at 62 g/ha: 62 g ai/ha; for pest or weed control at 125 g/ha: 125 g ai/ha; for pest or weed control at 250 g/ha: 250 g ai/ha; for pest or weed control at 500 g/ha: 500 g ai/ha
Method in brief: as §1

[4] = system: common (oilseed) sunflower (Helianthus annuus); conditions: Helianthus annuus, pre-emergence, Preemergence, read-out: Plant response rating, Sunflower
Method in brief: as §1

corn (Zea mays) = conditions: Zea mays; for Corn plant response rating (crop injury, 0 = no effect, 100 = complete kill) at 125 g/ha: 125 g ai/ha; for Corn plant response rating (crop injury, 0 = no effect, 100 = complete kill) at 250 g/ha: 250 g ai/ha; for Corn plant response rating (crop injury, 0 = no effect, 100 = complete kill) at 500 g/ha: 500 g ai/ha
Method in brief: as §1

[5] = system: giant foxtail (Setaria faberii); conditions: Setaria faberi; for pest or weed control at 125 g/ha: 125 g ai/ha; for pest or weed control at 500 g/ha: 500 g ai/ha; for pest or weed control at 62 g/ha: 62 g ai/ha; for pest or weed control at 250 g/ha: 250 g ai/ha
Method in brief: as §1

[6] = post-emergence, Postemergence, scale 0 to 100 (0 no effect, 100 complete control), read-out: Surinam Grass plant response rating
[7] = post-emergence, Postemergence, scale 0 to 100, read-out: Plant response rating, Surinam Grass
[8] = pre-emergence, Preemergence, scale 0 to 100, read-out: Plant response rating, Surinam Grass
[9] = post-emergence, Postemergence, scale 0 to 100 (0 no effect, 100 complete control), read-out: Lambsquarters plant response rating
[10] = post-emergence, Postemergence, scale 0 to 100, read-out: Plant response rating, Lambsquarters
[11] = pre-emergence, Preemergence, scale 0 to 100, read-out: Plant response rating, Lambsquarters
[12] = post-emergence, Postemergence, scale 0 to 100 (0 no effect, 100 complete control), read-out: Cocklebur plant response rating
[13] = post-emergence, Postemergence, scale 0 to 100, read-out: Plant response rating, Cocklebur
[14] = pre-emergence, Preemergence, scale 0 to 100, read-out: Plant response rating, Cocklebur
[15] = post-emergence, Postemergence, scale 0 to 100
[16] = pre-emergence, Preemergence, scale 0 to 100
[17] = post-emergence, Postemergence, scale 0 to 100 (0 no effect, 100 complete control), read-out: Foxtail, Giant plant response rating
[18] = post-emergence, Postemergence, scale 0 to 100, read-out: Plant response rating, Foxtail, Giant
[19] = pre-emergence, Preemergence, scale 0 to 100, read-out: Plant response rating, Foxtail, Giant

## CCOC(=O)c1nc(C2CC2)nc(N)c1Cl [Compound 4, ethyl 6-amino-5-chloro-2-cyclopropyl-4-pyrimidinecarboxylate]
Kochia (Kochia scoparia)
  pest or weed control at 500 g/ha: 100%
[1]; [6]
  pest or weed control at 125 g/ha: 75%
  pest or weed control at 62 g/ha: 60%
[1]; [7]
  pest or weed control at 500 g/ha: 95%
  pest or weed control at 250 g/ha: 75%
[1]; pre-emergence, Preemergence, scale 0 to 100, 0 no effect, 100 complete control, read-out: Plant response rating, Surinam Grass
  pest or weed control at 62 g/ha: 0%
[1]; [8]
  pest or weed control at 125 g/ha: 65%
  pest or weed control at 250 g/ha: 85%
  pest or weed control at 500 g/ha: 100%
[2]; [9]
  pest or weed control at 62 g/ha: 100%
  pest or weed control at 125 g/ha: 100%
[2]; [10]
  pest or weed control at 250 g/ha: 100%
  pest or weed control at 500 g/ha: 100%
[2]; pre-emergence, Preemergence, scale 0 to 100, 0 no effect, 100 complete control, read-out: Plant response rating, Lambsquarters
  pest or weed control at 62 g/ha: 95%
[2]; [11]
  pest or weed control at 125 g/ha: 100%
  pest or weed control at 250 g/ha: 100%
  pest or weed control at 500 g/ha: 100%
[3]; [12]
  pest or weed control at 62 g/ha: 85%
  pest or weed control at 125 g/ha: 100%
[3]; [13]
  pest or weed control at 250 g/ha: 100%
  pest or weed control at 500 g/ha: 100%
[3]; pre-emergence, Preemergence, scale 0 to 100, 0 no effect, 100 complete control, read-out: Plant response rating, Cocklebur
  pest or weed control at 62 g/ha: 80%
[3]; [14]
  pest or weed control at 125 g/ha: 95%
  pest or weed control at 250 g/ha: 100%
  pest or weed control at 500 g/ha: 100%
[4]; 62 g ai/ha, scale 0 to 100, 0 no effect, 100 complete control
  pest or weed control at 62 g/ha: 100%
[4]; 125 g ai/ha, scale 0 to 100
  pest or weed control at 125 g/ha: 100%
[4]; 250 g ai/ha, scale 0 to 100
  pest or weed control at 250 g/ha: 100%
[4]; 500 g ai/ha, scale 0 to 100
  pest or weed control at 500 g/ha: 100%
Corn (Zea mays); post-emergence, Postemergence, 62 g ai/ha, scale 0 to 100 (0 no effect, 100 complete control), read-out: Corn plant response rating
  Corn plant response rating (crop injury, 0 = no effect, 100 = complete kill) at 62 g/ha: 0%
Corn (Zea mays); post-emergence, Postemergence, scale 0 to 100 (0 no effect, 100 complete control), read-out: Corn plant response rating
  Corn plant response rating (crop injury, 0 = no effect, 100 = complete kill) at 125 g/ha: 80%
Corn (Zea mays); [15]
  Corn plant response rating (crop injury, 0 = no effect, 100 = complete kill) at 250 g/ha: 90%
  Corn plant response rating (crop injury, 0 = no effect, 100 = complete kill) at 500 g/ha: 95%
Corn (Zea mays); pre-emergence, Preemergence, scale 0 to 100, read-out: Plant response rating, Corn
  Corn plant response rating (crop injury, 0 = no effect, 100 = complete kill) at 125 g/ha: 0%
Corn (Zea mays); [16]
  Corn plant response rating (crop injury, 0 = no effect, 100 = complete kill) at 250 g/ha: 75%
  Corn plant response rating (crop injury, 0 = no effect, 100 = complete kill) at 500 g/ha: 90%
[5]; [17]
  pest or weed control at 125 g/ha: 75%
  pest or weed control at 62 g/ha: 60%
[5]; [18]
  pest or weed control at 500 g/ha: 95%
  pest or weed control at 250 g/ha: 85%
[5]; pre-emergence, Preemergence, scale 0 to 100, 0 no effect, 100 complete control, read-out: Plant response rating, Foxtail, Giant
  pest or weed control at 62 g/ha: 0%
[5]; [19]
  pest or weed control at 125 g/ha: 40%
  pest or weed control at 250 g/ha: 75%
  pest or weed control at 500 g/ha: 85%
